# “Also recorded” adds a separate entry of the source.
# Key:
# GluN2B = GluN2B protein expression by Western blot in primary cortical neuron cells; format: cell-based, mouse
# Experimental: Meanwhile, primary cortical neuron cells were isolated from cerebral cortices of 18-day-old mouse fetuses, incubated in prep media (composition (mM): NaCl 107.5, NaH2PO4 1, NaHCO333.5, glucose 11, HEPS 1%, penicillin-streptomycin 1%) containing 0.25% trypsin and DNasel for 30 minutes, dissociated into single cells, and seeded. Primary cortical neuron cells were grown in Neurobasal medium supplemented with 1% (v/v) B27, 1% penicillin (100 U/mL), streptomycin ([…]), and 1% Glutamax. Cells were maintained in a humidified atmosphere of 95% air and 5% CO2 at 37° C. Drug efficacy was evaluated after culturing primary cortical neuron cells for 14 days.
# The amount of GluN2B reacted with the compound of the present disclosure was measured using Western blot. The fetal cerebral cortex was extracted from mice at 17 days of gestation, dissociated into single cells, cultured for 13 days, and treated with BnH drugs for 24 hours. The drug-treated cells were subjected to protein lysate preparation using RIPA protein lysis buffer containing protease and phosphatase inhibitors. The protein concentration was determined using a BCA protein assay kit (Pierce Biotechnology) using bovine serum albumin as a standard. Equal amounts of protein (20 μg per lane) were separated by electrophoresis on SDS-polyacrylamide gels at 90 V for 2 hours, then transferred from the SDS-polyacrylamide gel to PVDF membrane at 100 V for 1 hour. Then, primary reaction with GluN2B antibody (ab65783, Abcam) was performed at 4° C. for 1 day, washed three times at 10-minutes intervals with 1×PBT, and secondary reaction was performed with anti-mouse antibody (sc-2357, Santa Cruz) for 1 hour, followed by washing three times at 10-minutes intervals with 1×PBT. Western blotting was performed as described above to confirm GluN2B protein expression. Subsequently, each blot was re-probed using anti-β-actin antibody (sc-47778, Santa Cruz). Housekeeping protein B-actin was detected as a normalization control.
# The increase and decrease of BnH12 series were confirmed by setting the vehicle to 1 (N for each group was 3 or more).
# Using the experimental procedure described in Example 3, it was determined whether various BnH12 series compounds increase GluN2B expression, and the results are shown in Table 5. These in vitro experimental results are expressed as relative values to the group (vehicle) that was not treated with the compound, with the effect of the group set to 1.
# [1] = tested on: rodent (rat) model of post-traumatic stress disorder; assay: Post-traumatic stress disorder animal model, freezing time; format: in vivo; details: PTSD rats, intraperitoneal 25 mg/kg, checked at 3-day intervals, compared to control group
# Experimental: The animals were obtained from the DBL. Animals are obtained 7 days before the test start. Twenty male SD-rats aged about 7 weeks were used. Animals were maintained in conventional environmental conditions according to the 12/12 hours light-dark cycle in the colony room, with access to food and water ad libitum. The rats were acclimatized to their new housing cage over a period of 7 days. The animals were carried out for all tests. All experiments were performed in accordance with the Guide for the Care and Use of Laboratory Animals, and all efforts were made to minimize animal suffering. Weight was measured at 3-day intervals from Day 7.
# This protocol involves two times exposure to foot shock without an opportunity of escape.
# The weight was measured three hours before the experiment. The temperature of the laboratory was maintained at 22° C. The animals were placed in the dark laboratory space for 10 minutes to adapt. The animals were each placed in the first room. […]
# The weight was measured three hours before the experiment. […]
# For the freezing check, 7 days after the initial foot shock protocol, the rats were placed in the first compartment with sandpaper of the apparatus for 5 minutes (no foot shock) and the freezing behavior was recorded using shutavoid_v1803 program (Panlab, Spain) according to the manufacturer's instruction. […]
compound,measurement,setting,value
"C[C@H]1CC[C@@H](C(=O)O)CN1C(=O)Cc1ccc(-c2cncnc2)cc1 [BnH12003, (3R,6S)-6-methyl-1-(2-(4-(pyrimidin-5-yl)phenyl)acetyl) piperidine-3-carboxylic acid]",GluN2B expression effect (in words),"GluN2B; compared to vehicle / other compounds, Table 5",excellent effects
same,Western blot results Mean (GluN2B expression),"GluN2B; relative value, vehicle set to 1, primary cortical neurons treated for 24 hours",2.141
same,freezing time,[1],liberated such rodents from trauma at a significantly faster rate; also recorded: significant decrease in freezing time
